In ChEMBL document CHEMBL4346715, “Antibacterial activity study of 1,2,4-triazole derivatives” (Eur J Med Chem, 2019):
In brackets after ≈: the same amount, converted by molar mass.

Legend:
Escherichia coli [1] = assay: Antibacterial activity against Escherichia coli assessed as zone of inhibition; type: functional
Staphylococcus aureus [2] = assay: Antibacterial activity against Staphylococcus aureus assessed as zone of inhibition; type: functional
Bacillus subtilis [3] = assay: Antibacterial activity against Bacillus subtilis assessed as zone of inhibition; type: functional
Salmonella typhimurium = assay: Antibacterial activity against Salmonella typhimurium assessed as zone of inhibition; type: functional, Salmonella enterica subsp. enterica serovar Typhimurium
Bacillus cereus = assay: Antibacterial activity against Bacillus cereus ATCC 10876 after 24 hrs by microdilution method; type: functional; conditions: ATCC 10876, 24 h
Enterococcus faecalis = assay: Antibacterial activity against Enterococcus faecalis ATCC 29212 after 24 hrs by microdilution method; type: functional; conditions: ATCC 29212, 24 h
Staphylococcus aureus [4] = assay: Antibacterial activity against Staphylococcus aureus ATCC 25923 after 24 hrs by microdilution method; type: functional; conditions: ATCC 25923, 24 h
Proteus mirabilis = assay: Antibacterial activity against Proteus mirabilis ATCC 35659 after 24 hrs by microdilution method; type: functional; conditions: ATCC 35659, 24 h
Escherichia coli [5] = assay: Antibacterial activity against Escherichia coli ATCC 25922 after 24 hrs by microdilution method; type: functional; conditions: ATCC 25922, 24 h
Pseudomonas aeruginosa [6] = assay: Antibacterial activity against Pseudomonas aeruginosa ATCC 27853 after 24 hrs by microdilution method; type: functional; conditions: ATCC 27853, 24 h
Candida albicans [7] = assay: Antifungal activity against Candida albicans ATCC 50193 after 24 hrs by microdilution method; type: functional; conditions: ATCC 50193, 24 h
Aspergillus brasiliensis = assay: Antifungal activity against Aspergillus brasiliensis ATCC 16404 after 24 hrs by microdilution method; type: functional; conditions: ATCC 16404, 24 h
Escherichia coli [8] = assay: Antibacterial activity against Escherichia coli; type: functional
Staphylococcus aureus [9] = assay: Antibacterial activity against Staphylococcus aureus; type: functional
Streptococcus pneumoniae = assay: Antibacterial activity against Streptococcus pneumoniae; type: functional
Bacillus subtilis [10] = assay: Antibacterial activity against Bacillus subtilis; type: functional
Clostridium tetani = assay: Antibacterial activity against Clostridium tetani; type: functional
Staphylococcus aureus [11] = assay: Antibacterial activity against methicillin-resistant Staphylococcus aureus incubated for 18 hrs post 30 mins pre-diffusion by disk diffusion method; type: functional
Bacillus anthracis = assay: Antibacterial activity against Bacillus anthracis incubated for 18 hrs post 30 mins pre-diffusion by disk diffusion method; type: functional
Pseudomonas aeruginosa [12] = assay: Antibacterial activity against Pseudomonas aeruginosa; type: functional
Candida albicans [13] = assay: Antifungal activity against Candida albicans; type: functional
Aspergillus niger = assay: Antifungal activity against Aspergillus niger; type: functional
Micrococcus luteus = assay: Antibacterial activity against Micrococcus luteus incubated for 18 hrs post 30 mins pre-diffusion by disk diffusion method; type: functional
Bacillus subtilis [14] = assay: Antibacterial activity against Bacillus subtilis incubated for 18 hrs post 30 mins pre-diffusion by disk diffusion method; type: functional
Escherichia coli [15] = assay: Antibacterial activity against Escherichia coli incubated for 18 hrs post 30 mins pre-diffusion by disk diffusion method; type: functional
Listeria innocua = assay: Antibacterial activity against Listeria innocua incubated for 18 hrs post 30 mins pre-diffusion by disk diffusion method; type: functional
Listeria monocytogenes [16] = assay: Antibacterial activity against Listeria monocytogenes ATCC 35152 after 24 hrs by broth microdilution method; type: functional; conditions: ATCC 35152, 24 h
Pseudomonas aeruginosa [17] = assay: Antibacterial activity against Pseudomonas aeruginosa ATCC 27853 after 24 hrs by broth microdilution method; type: functional; conditions: ATCC 27853, 24 h
Listeria monocytogenes [18] = assay: Potency index, ratio of ciprofloxacin MIC to test compound MIC for Listeria monocytogenes ATCC 35152 after 24 hrs by broth microdilution method; type: functional
Pseudomonas aeruginosa [19] = assay: Potency index, ratio of ciprofloxacin MIC to test compound MIC for Pseudomonas aeruginosa ATCC 27853 after 24 hrs by broth microdilution method; type: functional

Molecule: N#Cc1ccc(-c2nc(-c3ccccc3)c(-c3ccccc3)n2-n2c(-c3ccc(Cl)cc3)n[nH]c2=S)cc1
- inhibition zone (IZ) (Escherichia coli [1]): 10 - 18 mm
- inhibition zone (IZ) (Staphylococcus aureus [2]): 10 - 18 mm
- inhibition zone (IZ) (Bacillus subtilis [3]): 10 - 18 mm
- inhibition zone (IZ) (Salmonella typhimurium): 10 - 18 mm

Molecule: CCCCCCCCCCCCn1nnc(-c2n[nH]c(=S)n2-c2ccccc2)c1-c1n[nH]c(=S)n1-c1ccccc1
- MIC (Bacillus cereus): 1 to 128 µg/mL (≈ 1.7 to 218 µM)
- MIC (Enterococcus faecalis): 1 to 128 µg/mL (≈ 1.7 to 218 µM)
- MIC (Staphylococcus aureus [4]): 1 to 128 µg/mL (≈ 1.7 to 218 µM)
- MIC (Proteus mirabilis): 1 to 128 µg/mL (≈ 1.7 to 218 µM)
- MIC (Escherichia coli [5]): 1 to 128 µg/mL (≈ 1.7 to 218 µM)
- MIC (Pseudomonas aeruginosa [6]): 1 to 128 µg/mL (≈ 1.7 to 218 µM)
- MIC (Candida albicans [7]): 1 to 128 µg/mL (≈ 1.7 to 218 µM)
- MIC (Aspergillus brasiliensis): 1 to 128 µg/mL (≈ 1.7 to 218 µM)

Molecule: S=c1[nH]nc(-c2ccc(Cl)cc2)n1-n1c(-c2ccc(Br)cc2)nc(-c2ccccc2)c1-c1ccccc1
- inhibition zone (IZ) (Escherichia coli [1]): 10 - 18 mm
- inhibition zone (IZ) (Staphylococcus aureus [2]): 10 - 18 mm
- inhibition zone (IZ) (Bacillus subtilis [3]): 10 - 18 mm
- inhibition zone (IZ) (Salmonella typhimurium): 10 - 18 mm

Molecule: CC1(C)S[C@@H]2[C@H](NC(=O)[C@H](N)c3ccccc3)C(=O)N2[C@H]1C(=O)O [AMPICILLIN]
- MIC (Escherichia coli [8]): 100 to 250 µg/mL (≈ 286 to 715 µM)
- MIC (Staphylococcus aureus [9]): 10.9 µg/mL (≈ 31.2 µM)
- MIC (Streptococcus pneumoniae): 100 to 250 µg/mL (≈ 286 to 715 µM)
- MIC (Bacillus subtilis [10]): 100 to 250 µg/mL (≈ 286 to 715 µM)
- MIC (Clostridium tetani): 100 to 250 µg/mL (≈ 286 to 715 µM)
- MIC (Staphylococcus aureus [11]): 31 to 1000 µg/mL (≈ 88.7 to 2860 µM)
- MIC (Bacillus anthracis): 31 to 1000 µg/mL (≈ 88.7 to 2860 µM)
- MIC (Pseudomonas aeruginosa [12]): 10.2 µg/mL (≈ 29.2 µM)

Molecule: CCCCCCCCCCCCn1nnc(-c2n[nH]c(=S)n2N)c1-c1n[nH]c(=S)n1N
- MIC (Bacillus cereus): 1 to 128 µg/mL (≈ 2.15 to 275 µM)
- MIC (Enterococcus faecalis): 1 to 128 µg/mL (≈ 2.15 to 275 µM)
- MIC (Staphylococcus aureus [4]): 1 to 128 µg/mL (≈ 2.15 to 275 µM)
- MIC (Proteus mirabilis): 1 to 128 µg/mL (≈ 2.15 to 275 µM)
- MIC (Escherichia coli [5]): 1 to 128 µg/mL (≈ 2.15 to 275 µM)
- MIC (Pseudomonas aeruginosa [6]): 1 to 128 µg/mL (≈ 2.15 to 275 µM)
- MIC (Candida albicans [7]): 1 to 128 µg/mL (≈ 2.15 to 275 µM)
- MIC (Aspergillus brasiliensis): 1 to 128 µg/mL (≈ 2.15 to 275 µM)

Molecule: Fc1ccc(-c2nc(-c3ccccc3)c(-c3ccccc3)n2-n2c(-c3ccc(Cl)cc3)n[nH]c2=S)cc1
- inhibition zone (IZ) (Escherichia coli [1]): 10 - 18 mm
- inhibition zone (IZ) (Staphylococcus aureus [2]): 10 - 18 mm
- inhibition zone (IZ) (Bacillus subtilis [3]): 10 - 18 mm
- inhibition zone (IZ) (Salmonella typhimurium): 10 - 18 mm

Molecule: OC(Cn1cncn1)(Cn1cncn1)c1ccc(F)cc1F [FLUCONAZOLE]
- MIC (Candida albicans [13]): 10.2 µg/mL (≈ 33.3 µM)
- MIC (Aspergillus niger): 9.4 µg/mL (≈ 30.7 µM)
- MIC (Bacillus cereus): 4 µg/mL (≈ 13.1 µM)
- MIC (Enterococcus faecalis): 4 µg/mL (≈ 13.1 µM)
- MIC (Staphylococcus aureus [4]): 4 µg/mL (≈ 13.1 µM)
- MIC (Proteus mirabilis): 4 µg/mL (≈ 13.1 µM)
- MIC (Escherichia coli [5]): 4 µg/mL (≈ 13.1 µM)
- MIC (Pseudomonas aeruginosa [6]): 4 µg/mL (≈ 13.1 µM)
- MIC (Candida albicans [7]): 1 µg/mL (≈ 3.27 µM)
- MIC (Aspergillus brasiliensis): 1 µg/mL (≈ 3.27 µM)

Molecule: CCCCCCCCCCCCCCCCn1nnc(-c2n[nH]c(=S)n2N)c1-c1n[nH]c(=S)n1N
- MIC (Bacillus cereus): 1 to 128 µg/mL (≈ 1.92 to 245 µM)
- MIC (Enterococcus faecalis): 1 to 128 µg/mL (≈ 1.92 to 245 µM)
- MIC (Staphylococcus aureus [4]): 1 to 128 µg/mL (≈ 1.92 to 245 µM)
- MIC (Proteus mirabilis): 1 to 128 µg/mL (≈ 1.92 to 245 µM)
- MIC (Escherichia coli [5]): 1 to 128 µg/mL (≈ 1.92 to 245 µM)
- MIC (Pseudomonas aeruginosa [6]): 1 to 128 µg/mL (≈ 1.92 to 245 µM)
- MIC (Candida albicans [7]): 1 to 128 µg/mL (≈ 1.92 to 245 µM)
- MIC (Aspergillus brasiliensis): 1 to 128 µg/mL (≈ 1.92 to 245 µM)

Molecule: CCn1cc(C(=O)O)c(=O)c2cc(F)c(N3CCNCC3)cc21 [NORFLOXACIN]
- MIC (Staphylococcus aureus [9]): 14.1 µg/mL (≈ 44.2 µM)
- MIC (Candida albicans [13]): 7.8 µg/mL (≈ 24.4 µM)
- MIC (Aspergillus niger): 10.2 µg/mL (≈ 31.9 µM)
- MIC (Staphylococcus aureus [11]): 31 to 1000 µg/mL (≈ 97.1 to 3130 µM)
- MIC (Bacillus anthracis): 31 to 1000 µg/mL (≈ 97.1 to 3130 µM)
- MIC (Pseudomonas aeruginosa [12]): 11.7 µg/mL (≈ 36.6 µM)

Molecule: POLYMYXIN B
- MIC (Staphylococcus aureus [11]): 31 to 1000 µg/mL
- MIC (Bacillus anthracis): 31 to 1000 µg/mL

Molecule: CO[C@H]1/C=C/O[C@@]2(C)Oc3c(C)c(O)c4c(O)c(c(/C=N/N5CCN(C)CC5)c(O)c4c3C2=O)NC(=O)/C(C)=C\C=C\[C@H](C)[C@H](O)[C@@H](C)[C@@H](O)[C@@H](C)[C@H](OC(C)=O)[C@@H]1C [RIFAMPIN]
- MIC (Staphylococcus aureus [11]): 31 to 1000 µg/mL (≈ 37.7 to 1220 µM)
- MIC (Bacillus anthracis): 31 to 1000 µg/mL (≈ 37.7 to 1220 µM)

Molecule: Cn1cnc(CN(CCCO)Cc2ncn(C)n2)n1
- MIC (Micrococcus luteus): 7 to 15 µg/mL (≈ 26.4 to 56.5 µM)
- MIC (Bacillus subtilis [14]): 7 to 15 µg/mL (≈ 26.4 to 56.5 µM)
- MIC (Escherichia coli [15]): 7 to 15 µg/mL (≈ 26.4 to 56.5 µM)
- MIC (Listeria innocua): 7 to 15 µg/mL (≈ 26.4 to 56.5 µM)

Molecule: Cc1nc(-c2ccccc2)sc1-c1nnc(S)n1/N=C/c1ccc(N(C)C)cc1
- MIC (Listeria monocytogenes [16]): 1.95 µg/mL (≈ 4.64 µM)
- MIC (Pseudomonas aeruginosa [17]): 1.95 µg/mL (≈ 4.64 µM)
- Ratio (Listeria monocytogenes [18]): 2
- Ratio (Pseudomonas aeruginosa [19]): 2

Molecule: COc1cccc(/C=N/n2c(S)nnc2-c2sc(-c3ccccc3)nc2C)c1
- MIC (Listeria monocytogenes [16]): 1.95 µg/mL (≈ 4.78 µM)
- MIC (Pseudomonas aeruginosa [17]): 1.95 µg/mL (≈ 4.78 µM)
- Ratio (Listeria monocytogenes [18]): 2
- Ratio (Pseudomonas aeruginosa [19]): 2

Molecule: Cn1cnc(CNCc2ncn(C)n2)n1
- MIC (Micrococcus luteus): 7 to 15 µg/mL (≈ 33.8 to 72.4 µM)
- MIC (Bacillus subtilis [14]): 7 to 15 µg/mL (≈ 33.8 to 72.4 µM)
- MIC (Escherichia coli [15]): 7 to 15 µg/mL (≈ 33.8 to 72.4 µM)
- MIC (Listeria innocua): 7 to 15 µg/mL (≈ 33.8 to 72.4 µM)
